Source: PubChem BioAssay AID248 (DTP/NCI, 2004)
Values joined by “and” are separate entries in the source; they are usually repeats but may differ in a detail not shown here. Identical values can stand only once. Toxic doses and inconclusive results are not listed. Cut-off read from the data, not from the text of the source: active = T/C of 150% or more; inactive = T/C below 125%.

System: L1210 leukemia ip in BDF1 mice, survival T/C
Assay: NCI In Vivo Anticancer Drug Screen. Data for tumor model L1210 Leukemia (intraperitoneal) in B6D2F1 (BDF1) mice
Conditions: endpoint: mean survival time, higher = longer survival
Procedure, shortened: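 Transplantable tumor model; survival measured in treated vs vehicle control mice. Value = treated/control.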

[1] = dose: 100.0 mg/kg/injection, schedule: Q01DX009 (ip), vehicle: gum acacia
[2] = dose: 200.0 mg/kg/injection, schedule: Q01DX009 (ip), vehicle: gum acacia
[3] = dose: 400.0 mg/kg/injection, schedule: Q01DX009 (ip), vehicle: gum acacia
[4] = dose: 100.0 mg/kg/injection, schedule: Q04DX003 (ip), vehicle: Klucel (hydroxypropylcellulose) (HPC)
[5] = dose: 200.0 mg/kg/injection, schedule: Q04DX003 (ip), vehicle: Klucel (hydroxypropylcellulose) (HPC)
[6] = dose: 400.0 mg/kg/injection, schedule: Q04DX003 (ip), vehicle: Klucel (hydroxypropylcellulose) (HPC)
[7] = dose: 100.0 mg/kg/injection, schedule: Q04DX003 (ip), vehicle: saline
[8] = dose: 200.0 mg/kg/injection, schedule: Q04DX003 (ip), vehicle: saline
[9] = dose: 400.0 mg/kg/injection, schedule: Q04DX003 (ip), vehicle: saline
[10] = dose: 50.0 mg/kg/injection, schedule: Q01DX001 (ip), vehicle: saline
[11] = dose: 100.0 mg/kg/injection, schedule: Q01DX001 (ip), vehicle: saline
[12] = dose: 200.0 mg/kg/injection, schedule: Q01DX001 (ip), vehicle: saline
[13] = dose: 400.0 mg/kg/injection, schedule: Q01DX001 (ip), vehicle: saline
[14] = dose: 100.0 mg/kg/injection, schedule: Q01DX009 (ip), vehicle: Klucel (hydroxypropylcellulose) (HPC)
[15] = dose: 200.0 mg/kg/injection, schedule: Q01DX009 (ip), vehicle: Klucel (hydroxypropylcellulose) (HPC)
[16] = dose: 400.0 mg/kg/injection, schedule: Q01DX009 (ip), vehicle: Klucel (hydroxypropylcellulose) (HPC)
[17] = dose: 50.0 mg/kg/injection, schedule: Q01DX009 (ip), vehicle: saline
[18] = dose: 100.0 mg/kg/injection, schedule: Q01DX009 (ip), vehicle: saline
[19] = dose: 100.0 mg/kg/injection, schedule: Q04DX002 (ip), vehicle: Klucel (hydroxypropylcellulose) (HPC)
[20] = dose: 200.0 mg/kg/injection, schedule: Q04DX002 (ip), vehicle: Klucel (hydroxypropylcellulose) (HPC)

Measured: T/C

S=C1NC(c2cccs2)N2C(=S)NC(c3cccs3)N12 (stereo unspecified)
inactive: [1] 96 % of control | dose: 100.0 mg/kg/injection, schedule: Q04DX003 (ip), vehicle: gum acacia 92 % of control | [2] 91 % of control | dose: 200.0 mg/kg/injection, schedule: Q04DX003 (ip), vehicle: gum acacia 97 % of control | [3] 98 % of control | dose: 400.0 mg/kg/injection, schedule: Q04DX003 (ip), vehicle: gum acacia 97 % of control

Cc1ccc(C(=O)/C=C/N2CCN(c3ccccc3)CC2)c(C)c1
inactive: dose: 100.0 mg/kg/injection, schedule: Q04DX003 (ip), vehicle: saline with Tween-80 100 % of control | dose: 200.0 mg/kg/injection, schedule: Q04DX003 (ip), vehicle: saline with Tween-80 105 % of control | dose: 400.0 mg/kg/injection, schedule: Q04DX003 (ip), vehicle: saline with Tween-80 98 % of control

CC(C)(C)OC(=O)N/N=C/c1ccc2c(c1)OCO2
inactive: [4] 95 % of control | [5] 97 % of control | [6] 97 % of control

Cc1ccc(NN)c(Br)c1
inactive: [7] 104 % of control | [8] 106 % of control | [9] 101 % of control

CCCC(C=NCC(CCC)(CCN(C)C)c1cccc2ccccc12)(CCN(C)C)c1cccc2ccccc12 (stereo unspecified)
inactive: dose: 6.25 mg/kg/injection, schedule: Q04DX002 (ip), vehicle: Klucel (hydroxypropylcellulose) (HPC) 88 % of control | dose: 12.5 mg/kg/injection, schedule: Q04DX002 (ip), vehicle: Klucel (hydroxypropylcellulose) (HPC) 101 % of control | dose: 25.0 mg/kg/injection, schedule: Q04DX002 (ip), vehicle: Klucel (hydroxypropylcellulose) (HPC) 104 % of control

Cc1cc(C)n(N=C2CCCCC2)c(=O)c1C#N
inactive: dose: 100.0 mg/kg/injection, schedule: Q01DX001 (ip), vehicle: Klucel (hydroxypropylcellulose) (HPC) 96 % of control | [4] 100 % of control | dose: 200.0 mg/kg/injection, schedule: Q01DX001 (ip), vehicle: Klucel (hydroxypropylcellulose) (HPC) 105 % of control | [5] 99 % of control | dose: 400.0 mg/kg/injection, schedule: Q01DX001 (ip), vehicle: Klucel (hydroxypropylcellulose) (HPC) 94 % of control | [6] 89 % of control

COc1ccc(/C=C/c2ccc3ccccc3[n+]2C)cc1
inactive: dose: 12.5 mg/kg/injection, schedule: Q01DX009 (ip), vehicle: saline with Tween-80 94 % of control | dose: 25.0 mg/kg/injection, schedule: Q01DX009 (ip), vehicle: saline with Tween-80 115 % of control | dose: 25.0 mg/kg/injection, schedule: Q04DX003 (ip), vehicle: Klucel (hydroxypropylcellulose) (HPC) 101 % of control | dose: 50.0 mg/kg/injection, schedule: Q01DX009 (ip), vehicle: saline with Tween-80 115 % of control | dose: 50.0 mg/kg/injection, schedule: Q04DX003 (ip), vehicle: Klucel (hydroxypropylcellulose) (HPC) 106 % of control

CCC[CH2][Sn]([CH2]CCC)([CH2]CCC)[CH2]c1ccccc1
inactive: [7] 98 % of control | [8] 102 % of control | [9] 88 % of control

S=c1nc[nH]c2c1ncn2CCCc1ccccc1
inactive: dose: 50.0 mg/kg/injection, schedule: Q01DX001 (ip), vehicle: carboxymethylcellulose (CMC) 106 % of control | dose: 100.0 mg/kg/injection, schedule: Q01DX001 (ip), vehicle: carboxymethylcellulose (CMC) 98 % of control | dose: 200.0 mg/kg/injection, schedule: Q01DX001 (ip), vehicle: carboxymethylcellulose (CMC) 98 % of control | dose: 400.0 mg/kg/injection, schedule: Q01DX001 (ip), vehicle: carboxymethylcellulose (CMC) 95 % of control

C[N+](C)(C)c1ccc(C(=O)[O-])cc1
inactive: [10] 97 % of control | [11] 97 % of control | [12] 97 % of control | [13] 103 % of control

Cc1ccc(NC(=O)Nc2ccccc2Cl)cc1Cl
inactive: [14] 100 % of control | [4] 112 % of control | [15] 98 % of control | [5] 96 % of control | [16] 100 % of control | [6] 94 % of control

Cc1c2c(cc3c1OCN(C)C3)CN(C)CO2
inactive: [10] 104 % of control | [11] 101 % of control | [12] 107 % of control

O=C(c1cc(Cl)cc(Cl)c1)N1CC1
inactive: dose: 25.0 mg/kg/injection, schedule: Q01DX009 (ip), vehicle: saline 100 % of control | [17] 91 % of control | [18] 90 % of control | dose: 200.0 mg/kg/injection, schedule: Q01DX009 (ip), vehicle: saline 100 % of control | dose: 400.0 mg/kg/injection, schedule: Q01DX009 (ip), vehicle: saline 96 % of control

OC(c1ccc(Cl)cc1)(c1ccc(Cl)cc1)C(F)(F)F
inactive: dose: 100.0 mg/kg/injection, schedule: Q01DX009 (sc), vehicle: olive oil, sesame oil, peanut oil 113 % of control | dose: 100.0 mg/kg/injection, schedule: Q04DX003 (sc), vehicle: olive oil, sesame oil, peanut oil 100 % of control | dose: 200.0 mg/kg/injection, schedule: Q01DX009 (sc), vehicle: olive oil, sesame oil, peanut oil 101 % of control | dose: 200.0 mg/kg/injection, schedule: Q04DX003 (sc), vehicle: olive oil, sesame oil, peanut oil 97 % of control | dose: 400.0 mg/kg/injection, schedule: Q04DX003 (sc), vehicle: olive oil, sesame oil, peanut oil 113 % of control

O=C1Nc2ccccc2C1=Nc1ccc(F)cc1
inactive: [11] 96 % of control | [12] 92 % of control | [13] 94 % of control

CN(C)CCCn1c2ccccc2c2cnccc21
inactive: [17] 100 % of control | [18] 89 % of control | [7] 97 % of control

CC1(C(O)CO)OCCO1 (stereo unspecified)
inactive: dose: 25.0 mg/kg/injection, schedule: Q04DX002 (ip), vehicle: saline 110 % of control | dose: 50.0 mg/kg/injection, schedule: Q04DX002 (ip), vehicle: saline 103 % of control | dose: 200.0 mg/kg/injection, schedule: Q04DX002 (ip), vehicle: saline 107 % of control and 110 % of control | dose: 400.0 mg/kg/injection, schedule: Q04DX002 (ip), vehicle: saline 117 % of control

O=C([O-])C(=O)[O-].[Cu+2].[OH2+]CC[N-]CC[OH2+].[OH2+]CC[N-]CC[OH2+]
inactive: dose: 5.0 mg/kg/injection, schedule: Q01DX001 (ip), vehicle: saline 97 % of control | dose: 10.0 mg/kg/injection, schedule: Q01DX001 (ip), vehicle: saline 92 % of control | dose: 20.0 mg/kg/injection, schedule: Q01DX001 (ip), vehicle: saline 103 % of control

NC1(C(=O)O)CCCC2CCCCC21 (stereo unspecified)
inactive: [14] 100 % of control | [19] 93 % of control | [15] 96 % of control | [20] 93 % of control | [16] 91 % of control | dose: 400.0 mg/kg/injection, schedule: Q04DX002 (ip), vehicle: Klucel (hydroxypropylcellulose) (HPC) 96 % of control

O=c1[nH]c2ccccc2nc1C(Cl)(Cl)Cl
inactive: [19] 112 % of control | [20] 105 % of control

CCCCCC(=O)NNC(=O)CCCCC
inactive: dose: 75.0 mg/kg/injection, schedule: Q01DX001 (ip), vehicle: saline 91 % of control | dose: 150.0 mg/kg/injection, schedule: Q01DX001 (ip), vehicle: saline 91 % of control | dose: 300.0 mg/kg/injection, schedule: Q01DX001 (ip), vehicle: saline 94 % of control

N#CC(C#N)=Cc1ccc2c(c1)CCC2
inactive: dose: 10.0 mg/kg/injection, schedule: Q01DX009 (ip), vehicle: saline with Tween-80 100 % of control | dose: 20.0 mg/kg/injection, schedule: Q01DX009 (ip), vehicle: saline with Tween-80 96 % of control | dose: 40.0 mg/kg/injection, schedule: Q01DX009 (ip), vehicle: saline with Tween-80 94 % of control | dose: 75.0 mg/kg/injection, schedule: Q01DX001 (ip), vehicle: other 96 % of control

Cc1c(C)c(Cl)c(C)c(Cl)c1O
inactive: [14] 94 % of control | [4] 98 % of control | [15] 89 % of control | [5] 93 % of control | [16] 91 % of control | [6] 105 % of control

CCOC(=O)C(C)Oc1ccc([N+](=O)[O-])cc1Cl (stereo unspecified)
inactive: [1] 94 % of control | [2] 99 % of control | [3] 99 % of control
